Source: PubChem BioAssay (NCI)
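Briefly, cells in 96-well plates were exposed to five compound concentrations for 48 h, and endpoints were estimated by linear interpolation. TGI: total growth inhibition.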

Legend:
Assay in all cases: DTP human tumour cell line panel, 48 h
[1] = test system: NCI-H23 lung
[2] = test system: HCT-15 colon
[3] = test system: MDA-N
[4] = test system: HS 578T breast
[5] = test system: M14 melanoma
[6] = test system: SK-OV-3 ovarian
[7] = test system: OVCAR-8 ovarian
[8] = test system: HCC-2998 colon
[9] = test system: HOP-92 NSCLC
[10] = test system: SF-539 CNS
[11] = test system: CCRF-CEM leukemia
[12] = test system: OVCAR-4 ovarian
[13] = test system: U251 CNS
[14] = test system: HCT-116 colon
[15] = test system: NCI/ADR-RES ovarian
[16] = test system: DU-145 prostate
[17] = test system: KM12 colon
[18] = test system: NCI-H460 lung
[19] = test system: SNB-19 CNS
[20] = test system: SN12C renal
[21] = test system: MDA-MB-231 breast
[22] = test system: OVCAR-3 ovarian
[23] = test system: SK-MEL-5 melanoma
[24] = test system: IGROV1 ovarian
[25] = test system: SK-MEL-2 melanoma
[26] = test system: T-47D breast
[27] = test system: EKVX NSCLC
[28] = test system: TK-10 renal
[29] = test system: UO-31 renal
[30] = test system: SF-295 CNS
[31] = test system: MALME-3M melanoma
[32] = test system: CAKI-1 renal
[33] = test system: COLO 205 colon
[34] = test system: HT29 colon
[35] = test system: LOX IMVI melanoma
[36] = test system: UACC-62 melanoma
[37] = test system: OVCAR-5 ovarian
[38] = test system: A498 renal
[39] = test system: UACC-257 melanoma
[40] = test system: A549 NSCLC
[41] = test system: MOLT-4 leukemia
[42] = test system: 786-0 renal
[43] = test system: SF-268 CNS
[44] = test system: ACHN renal
[45] = test system: RPMI-8226 leukemia
[46] = test system: K-562 leukemia
[47] = test system: PC-3 prostate
[48] = test system: NCI-H522 lung
[49] = test system: SK-MEL-28 melanoma
[50] = test system: HOP-62 NSCLC
[51] = test system: BT-549 breast
[52] = test system: MCF7 breast
[53] = test system: MDA-MB-435
[54] = test system: HL-60(TB) leukemia
[55] = test system: RXF 393 renal
[56] = test system: SW-620 colon
[57] = test system: SNB-75 CNS
[58] = test system: SR leukemia
[59] = test system: NCI-H226 lung

Measured: TGI

Oc1ccc(Br)cc1C=NC1CCCCC1
74.2 µM: [25]
75.5 µM: [26]
48.8 µM: [14]
44.5 µM: [54]
> 100 µM: [1] | [2] | [3] | [4] | [5] | [6] | [7] | [8] | [9] | [10] | [11] | [12] | [13] | [15] | [16] | [17] | [18] | [19] | [21] | [22] | [24] | [27] | [28] | [29] | [30] | [31] | [32] | [33] | [34] | [35] | [36] | [37] | [38] | [39] | [40] | [41] | [42] | [43] | [44] | [45] | [46] | [47] | [48] | [49] | [50] | [51] | [52] | [53] | [55] | [56]
19.5 µM: [20]
43.8 µM: [23]

O=P(O)(O)c1ccc2c(c1)OCCOCCOCCOCCO2
> 100 µM: [1] | [2] | [3] | [4] | [6] | [7] | [8] | [10] | [11] | [57] | [14] | [16] | [17] | [18] | [19] | [20] | [21] | [23] | [24] | [26] | [27] | [28] | [29] | [30] | [31] | [33] | [34] | [58] | [35] | [36] | [38] | [39] | [40] | [41] | [59] | [42] | [43] | [44] | [45] | [46] | [47] | [48] | [49] | [50] | [51] | [52] | [53] | [54] | [56]
